Reference: patent US12030904B2 (priority 2020, dated 2024)
Like-named read-outs stand apart in the source and are kept apart here.

What was measured:
[1] = tested on: Recombinant Respiratory Syncytial virus strain A2 containing the firefly luciferase reporter (RSV-Fluc); test: microbe, parasite or virus in culture; type: cell-based; conditions: human respiratory syncytial virus, NHBE
SARS-CoV-2 = test: microbe, parasite or virus in culture; type: cell-based
MT4 cytotoxicity (CC50) = conditions: human, MT4 cells
[2] = Severe acute respiratory syndrome coronavirus 2, read-out: SARS EC50
[3] = 72 h, read-out: RSV-Fluc EC50 (NHBE), NHBE cells, three days, Table 2

For CCCCCCCCCCCCCCCCCCOC[C@H](COP(=O)(O)OC[C@H]1O[C@@](C#N)(c2ccc3c(N)ncnn23)[C@H](O)[C@@H]1O)OCc1cccc(C#N)n1 [Example 107, [(2R,3S,4R,5R)-5-(4-Aminopyrrolo[2,1-f][1,2,4]triazin-7-yl)-5-cyano-3,4-dihydroxy-tetrahydrofuran-2-yl]methyl [(2R)-2-[(6-cyano-2-pyridyl)methoxy]-3-octadecoxy-propyl] hydrogen phosphate], the EC50 ([1]; read-out: RSV EC50, Table 4) was 80 nM, the EC50 (SARS-CoV-2; [2]) was 370 nM and the CC50 (MT4 cytotoxicity (CC50); MT4 CC50, Table 4) was 885 nM.

CCCCCCCCCCCCCCCCCOCC[C@H](COP(=O)(O)OC[C@H]1O[C@@](C#N)(c2ccc3c(N)ncnn23)[C@H](O)[C@@H]1O)OCc1ccc(C#N)cc1 [Example 111, [(2R,3S,4R,5R)-5-(4-Aminopyrrolo[2,1-f][1,2,4]triazin-7-yl)-5-cyano-3,4-dihydroxy-tetrahydrofuran-2-yl]methyl [(2R)-2-[(4-cyanophenyl)methoxy]-4-heptadecoxy-butyl] hydrogen phosphate] showed an EC50 ([1]; read-out: RSV EC50, Table 4) of 499 nM, an EC50 (SARS-CoV-2; [2]) of 3500 nM and a CC50 (MT4 cytotoxicity (CC50); MT4 CC50, Table 4) of 18900 nM.

In the case of CCCCCCCCCCCCCCCCCCOC[C@H](COP(=O)(O)OC[C@H]1O[C@@](C#N)(c2ccc3c(N)ncnn23)[C@H](O)[C@@H]1O)OCc1ccc(C#N)cc1Cl [Example 103, [(2R,3S,4R,5R)-5-(4-Aminopyrrolo[2,1-f][1,2,4]triazin-7-yl)-5-cyano-3,4-dihydroxy-tetrahydrofuran-2-yl]methyl [(2R)-2-[(2-chloro-4-cyano-phenyl)methoxy]-3-octadecoxy-propyl] hydrogen phosphate], the EC50 ([1]; read-out: RSV EC50, Table 4) is reported as 387 nM, the EC50 (SARS-CoV-2; [2]) is reported as 10000 nM and the CC50 (MT4 cytotoxicity (CC50); MT4 CC50, Table 4) is reported as 50000 nM.

Work on CCCCCCCCCCCCCCCCCCOC[C@H](COP(=O)(O)OC[C@H]1O[C@@](C#N)(c2ccc3c(N)ncnn23)[C@H](O)[C@@H]1O)Oc1cnc(C#N)nc1 [Example 82, ((2R,3S,4R,5R)-5-(4-aminopyrrolo[2,1-f][1,2,4]triazin-7-yl)-5-cyano-3,4-dihydroxytetrahydrofuran-2-yl)methyl ((R)-2-((2-cyanopyrimidin-5-yl)oxy)-3-(octadecyloxy)propyl) hydrogen phosphate] yielded an EC50 ([1]; read-out: RSV EC50, Table 4) of 10 nM, an EC50 (SARS-CoV-2; [2]) of 120 nM and a CC50 (MT4 cytotoxicity (CC50); MT4 CC50, Table 4) of 324 nM.

For CCCCCCCCCCCCCCCCCCOC[C@H](COP(=O)(O)OC[C@H]1O[C@@](C#N)(c2ccc3c(N)ncnn23)[C@H](O)[C@@H]1O)Oc1ccc(C#N)nc1 [Example 78, ((2R,3S,4R,5R)-5-(4-aminopyrrolo[2,1-f][1,2,4]triazin-7-yl)-5-cyano-3,4-dihydroxytetrahydrofuran-2-yl)methyl ((R)-2-((6-cyanopyridin-3-yl)oxy)-3-(octadecyloxy)propyl) hydrogen phosphate], the EC50 ([1]; read-out: RSV EC50, Table 4) was 7 nM, the EC50 (SARS-CoV-2; [2]) was 33 nM and the CC50 (MT4 cytotoxicity (CC50); MT4 CC50, Table 4) was 133 nM.

In the case of CCCCCCCCCCCCCCCCOC[C@H](COP(=O)(O)OC[C@H]1O[C@@](C#N)(c2ccc3c(N)ncnn23)[C@H](O)[C@@H]1O)OCc1ccc(OC)cc1 [Example 97, ((2R,3S,4R,5R)-5-(4-aminopyrrolo[2,1-f][1,2,4]triazin-7-yl)-5-cyano-3,4-dihydroxytetrahydrofuran-2-yl)methyl ((R)-3-(hexadecyloxy)-2-((4-methoxybenzyl)oxy)propyl) hydrogen phosphate], the EC50 ([1]; read-out: RSV EC50, Table 4) is reported as 40 nM, the EC50 (SARS-CoV-2; [2]) is reported as 99 nM and the CC50 (MT4 cytotoxicity (CC50); MT4 CC50, Table 4) is reported as 652 nM.

CCCCCCCCCCCCOCCCOP(=O)(O)OC[C@H]1O[C@@](C#N)(c2ccc3c(N)ncnn23)[C@H](O)[C@@H]1O [Example 57, ((2R,3S,4R,5R)-5-(4-Aminopyrrolo[2,1-f][1,2,4]triazin-7-yl)-5-cyano-3,4-dihydroxytetrahydrofuran-2-yl)methyl (3-(dodecyloxy)propyl) hydrogen phosphate] showed an EC50 [1, 3] of 2200 nM, an EC50 ([1]; read-out: RSV EC50, Table 2a) of 2180 nM and an EC50 (SARS-CoV-2; [2]) of 10000 nM. The CC50 (MT4 cytotoxicity (CC50); MT4 CC50, Table 2a) was 50000 nM.

CCCCCCCCCCCCCCCCCCOC[C@H](COP(=O)(O)OC[C@H]1O[C@@](C#N)(c2ccc3c(N)ncnn23)[C@H](O)[C@@H]1O)OCc1ccc(F)c(C#N)c1 [Example 98, [(2R,3S,4R,5R)-5-(4-aminopyrrolo[2,1-f][1,2,4]triazin-7-yl)-5-cyano-3,4-dihydroxy-tetrahydrofuran-2-yl]methyl [(2R)-2-[(3-cyano-4-fluoro-phenyl)methoxy]-3-octadecoxy-propyl] hydrogen phosphate] showed an EC50 ([1]; read-out: RSV EC50, Table 4) of 1000 nM, an EC50 (SARS-CoV-2; [2]) of 1300 nM and a CC50 (MT4 cytotoxicity (CC50); MT4 CC50, Table 4) of 8980 nM.

Work on CCCCCCCCCCCCCCCCCCOC[C@H](COP(=O)(O)OC[C@H]1O[C@@](C#N)(c2ccc3c(N)ncnn23)[C@H](O)[C@@H]1O)OC(C)c1ccccc1 (single isomer, unassigned) [Example 27] yielded an EC50 [1, 3] of 110 nM, an EC50 ([1]; read-out: RSV EC50, Table 2a) of 113 nM and an EC50 (SARS-CoV-2; [2]) of 2000 nM. For the same molecule, the CC50 (MT4 cytotoxicity (CC50); MT4 CC50, Table 2a) was 614 nM.

With CCCCCCCCCCCCCCOCCCCOP(=O)(O)OC[C@H]1O[C@@](C#N)(c2ccc3c(N)ncnn23)[C@H](O)[C@@H]1O [Example 120, [(2R,3S,4R,5R)-5-(4-Aminopyrrolo[2,1-f][1,2,4]triazin-7-yl)-5-cyano-3,4-dihydroxy-tetrahydrofuran-2-yl]methyl 4-tetradecoxybutyl hydrogen phosphate] the EC50 ([1]; read-out: RSV EC50, Table 4) was 224 nM, the EC50 (SARS-CoV-2; [2]) was 10000 nM and the CC50 (MT4 cytotoxicity (CC50); MT4 CC50, Table 4) was 12100 nM.

CCCCCCCCCCCCCCCCCCOC[C@H](COP(=O)(O)OC[C@H]1O[C@@](C#N)(c2ccc3c(N)ncnn23)[C@H](O)[C@@H]1O)Oc1cccc(C#N)c1 [Example 30, ((2R,3S,4R,5R)-5-(4-aminopyrrolo[2,1-f][1,2,4]triazin-7-yl)-5-cyano-3,4-dihydroxytetrahydrofuran-2-yl)methyl ((R)-2-(3-cyanophenoxy)-3-(octadecyloxy)propyl) hydrogen phosphate] gave an EC50 [1, 3] of 17 nM, an EC50 ([1]; read-out: RSV EC50, Table 2a) of 17 nM and an EC50 (SARS-CoV-2; [2]) of 97 nM. It also gave a CC50 (MT4 cytotoxicity (CC50); MT4 CC50, Table 2a) of 188 nM.

CCCCCCCCCCCCCCCCCCOC[C@H](COP(=O)(O)OC[C@H]1O[C@@](C#N)(c2ccc3c(N)ncnn23)[C@H](O)[C@@H]1O)OCc1ccc(OC)c(Cl)c1 [Example 49, ((2R,3S,4R,5R)-5-(4-aminopyrrolo[2,1-f][1,2,4]triazin-7-yl)-5-cyano-3,4-dihydroxytetrahydrofuran-2-yl)methyl ((R)-2-((3-chloro-4-methoxybenzyl)oxy)-3-(octadecyloxy)propyl) hydrogen phosphate] showed an EC50 [1, 3] of 230 nM, an EC50 ([1]; read-out: RSV EC50, Table 2a) of 232 nM and an EC50 (SARS-CoV-2; [2]) of 3350 nM. For the same molecule, the CC50 (MT4 cytotoxicity (CC50); MT4 CC50, Table 2a) was 951 nM.

Work on CCCCCCCCCCCCCCCCCOC[C@H](COP(=O)(O)OC[C@H]1O[C@@](C#N)(c2ccc3c(N)ncnn23)[C@H](O)[C@@H]1O)OCc1ccccc1 [Example 6, ((2R,3S,4R,5R)-5-(4-aminopyrrolo[2,1-f][1,2,4]triazin-7-yl)-5-cyano-3,4-dihydroxytetrahydrofuran-2-yl)methyl ((R)-2-(benzyloxy)-3-(heptadecyloxy)propyl) hydrogen phosphate] yielded an EC50 ([1]; 72 h, read-out: RSV-Fluc EC50 (NHBE), NHBE cells, three days, Table 1) of 80 nM, an EC50 (SARS-CoV-2; Severe acute respiratory syndrome coronavirus 2, 48 h, read-out: SARS-CoV-2 EC50) of 950 nM and a CC50 (MT4 cytotoxicity (CC50); MT4 CC50, Table 1a) of 4150 nM.

In the case of CCCCCCCCCCCCCCCCCCOC[C@H](COP(=O)(O)OC[C@H]1O[C@@](C#N)(c2ccc3c(N)ncnn23)[C@H](O)[C@@H]1O)Oc1ccc(C#N)cn1 [Example 76, ((2R,3S,4R,5R)-5-(4-aminopyrrolo[2,1-f][1,2,4]triazin-7-yl)-5-cyano-3,4-dihydroxytetrahydrofuran-2-yl)methyl ((R)-2-((5-cyanopyridin-2-yl)oxy)-3-(octadecyloxy)propyl) hydrogen phosphate], the EC50 ([1]; read-out: RSV EC50, Table 4) is reported as 31 nM, the EC50 (SARS-CoV-2; [2]) is reported as 48 nM and the CC50 (MT4 cytotoxicity (CC50); MT4 CC50, Table 4) is reported as 295 nM.

Molecule CCCCCCCCCCCCCCCCCCOC[C@H](COP(=O)(O)OC[C@H]1O[C@@](C#N)(c2ccc3c(N)ncnn23)[C@H](O)[C@@H]1O)OCc1cnc(C(F)(F)F)nc1 [Example 122, [(2R,3S,4R,5R)-5-(4-Aminopyrrolo[2,1-f][1,2,4]triazin-7-yl)-5-cyano-3,4-dihydroxy-tetrahydrofuran-2-yl]methyl [(2R)-3-octadecoxy-2-[[2-(trifluoromethyl)pyrimidin-5-yl]methoxy]propyl] hydrogen phosphate] has an EC50 ([1]; read-out: RSV EC50, Table 4) of 39 nM, an EC50 (SARS-CoV-2; [2]) of 450 nM and a CC50 (MT4 cytotoxicity (CC50); MT4 CC50, Table 4) of 995 nM.

In the case of CCCCCCCC/C=C/CCCCCCCCOC[C@H](COP(=O)(O)OC[C@H]1O[C@@](C#N)(c2ccc3c(N)ncnn23)[C@H](O)[C@@H]1O)OCc1ccc(C#N)cc1F [Example 127, ((2R,3S,4R,5R)-5-(4-aminopyrrolo[2,1-f][1,2,4]triazin-7-yl)-5-cyano-3,4-dihydroxytetrahydrofuran-2-yl)methyl ((R)-2-((4-cyano-2-fluorobenzyl)oxy)-3-(((E)-octadec-9-en-1-yl)oxy)propyl) hydrogen phosphate], the EC50 ([1]; read-out: RSV EC50, Table 4) is reported as 28 nM, the EC50 (SARS-CoV-2; [2]) is reported as 140 nM and the CC50 (MT4 cytotoxicity (CC50); MT4 CC50, Table 4) is reported as 3910 nM.

CCCCCCCCCCCCCCCCCCOC[C@H](COP(=O)(O)OC[C@H]1O[C@@](C#N)(c2ccc3c(N)ncnn23)[C@H](O)[C@@H]1O)OCc1ccc(C(F)F)cc1 [Example 33, ((2R,3S,4R,5R)-5-(4-aminopyrrolo[2,1-f][1,2,4]triazin-7-yl)-5-cyano-3,4-dihydroxytetrahydrofuran-2-yl)methyl ((R)-2-((4-(difluoromethyl)benzyl)oxy)-3-(octadecyloxy)propyl) hydrogen phosphate] gave an EC50 ([1]; read-out: RSV EC50, Table 2a) of 77 nM, an EC50 (SARS-CoV-2; [2]) of 3020 nM and a CC50 (MT4 cytotoxicity (CC50); MT4 CC50, Table 2a) of 8850 nM.

With CCCCCCCCCCCCCCCCOCCCOP(=O)(O)OC[C@H]1O[C@@](C#N)(c2ccc3c(N)ncnn23)[C@H](O)[C@@H]1O [Example 60, ((2R,3S,4R,5R)-5-(4-Aminopyrrolo[2,1-f][1,2,4]triazin-7-yl)-5-cyano-3,4-dihydroxytetrahydrofuran-2-yl)methyl (3-(hexadecyloxy)propyl) hydrogen phosphate] the EC50 [1, 3] was 73 nM, the EC50 ([1]; read-out: RSV EC50, Table 2a) was 73 nM and the EC50 (SARS-CoV-2; [2]) was 6950 nM. It also gave a CC50 (MT4 cytotoxicity (CC50); MT4 CC50, Table 2a) of 25800 nM.
